In article PMC6331810, “Novel Coumarin-Containing Aminophosphonatesas Antitumor Agent: Synthesis, Cytotoxicity, DNA-Binding and Apoptosis Evaluation” (Molecules, 2015):

Tested on: human KB (human nasopharyngeal carcinoma cells)
Assay: MTT cytotoxicity assay, human KB
Type: cell-based
Conditions: Homo sapiens, light or radiation study, 48 h, no irradiation, mean ± SD of three experiments
Experimental: Cell Lines. The following in vitro human cancer cell lines were used: HCT-116 (Human colorectal cells), human KB (human nasopharyngeal carcinoma cells), MGC-803 (human lung adenocarcinoma cell line), HUVEC (Human Umbilical Vein Endothelial Cells). The cell lines (HCT-116, KB, MGC-803 and HUVEC) were purchased from the Cell Resource Center of Shanghai Institutes for Biological Sciences, the Academy of Sciences of China.
Cell Culture. HCT-116, human KB, MGC-803 and HUVEC cells were cultured in Dulbecco Modified Eagle Medium (DMEM; HyClone, Los Angeles, CA, USA), containing 4.0 mM L-Glutamine and 4500 mg/L Glucose, supplemented with 10% (v/v) foetalbovine serum (FBS; HyClone). The cell culturemedia was supplemented with penicillin/streptomycin at 100 Units/mL as adherent monolayers. Cell cultures were kept in a humidified incubator with 5% CO2 at 37 °C. Stock solutions were prepared in dimethyl sulfoxide (DMSO) and further dilutions were made with fresh culture medium. The concentration of DMSO in the final culture medium was 1%, which had no effect on the cell viability.
MTT Assay. Chemosensitivity was assessed using 3-(4,5-dimethylthiazol-2-yl)-2,5-diphenyl tetrazolium bromide (MTT) assay. Briefly, exponentially growing HCT-116 (3000–4000 cells/well), human KB (2000–3000 cells/well) and MGC 803 (2000–3000 cells/well) were seeded into 96-well plates and treated with indicated concentrations of samples for 48 h, and then […] of MTT (10 mg/mL) was added. After incubation for 4 h at 37 °C, the purple formazan crystals (i.e., a reduced form of MTT) generated from viable cells were dissolved by adding 100 μL DMSO in each well. The plates were swirled gently for 10 min to dissolve the precipitate, and quantified by measuring the optical density (OD) of the plates at a wavelength of 490 nm on plate reader (TECAN infinite M1000). Each concentration was repeated in three wells and the same experimental conditions were provided for all compounds and MTT analysis was repeated three times for each cell line.

Question: Which IC50 does the source give for `CCOP(=O)(OCC)C(C)(NC(=O)CCOc1ccc2c(C)cc(=O)oc2c1)c1ccccc1` (stereo not shown) [Compound 8j, Diethyl 1-(3-(4-methyl-2-oxo-2H-chromen-7-yloxy)propanamido)-1-phenylethylphosphonate] here?
Answer: 80 nM
